Source: patent US7655664B2, “Hydantoin derivatives as metalloproteinase inhibitors” (AstraZeneca AB, priority 2004, dated 2010)

How the values were obtained:
Assay type in all cases: biochemical
[1] = biological target: T1, Recombinant human MMP12 catalytic domain (Homo sapiens, UniProt P39900); test: MMP12 isolated enzyme assay (fluorogenic substrate); conditions: 60 min, room temperature, read-out: hMMP12 IC50
T1 construct: Recombinant human MMP12 catalytic domain; made in house
Description: Recombinant human MMP12 catalytic domain may be expressed and purified as described by Parkar A. A. et al, (2000), Protein Expression and Purification, 20, 152. The purified enzyme can be used to monitor inhibitors of activity as follows: MMP12 (50 ng/ml final concentration) is incubated for 60 minutes at room temperature with the synthetic substrate Mca-Pro-Cha-Gly-Nva-His-Ala-Dpa-NH2 (10 μM) in assay buffer (0.1M “Tris-HCl” (trade mark) buffer, pH 7.3 containing 0.1M NaCl, 20 mM CaCl2, 0.020 mM ZnCl and 0.05% (w/v) “Brij 35” (trade mark) detergent) in the presence (10 concentrations) or absence of inhibitors. Activity is determined by measuring the fluorescence at λex 320 nm and λem 405 nm. Percent inhibition is calculated as follows: % Inhibition is equal to the [Fluorescenceplus inhibitor−Fluorescencebackground] divided by the [Fluorescenceminus inhibitor−Fluorescencebackground]. MMP8

[2] = biological target: T2, Recombinant human MMP9 catalytic domain (Homo sapiens, UniProt P14780); test: MMP9 isolated enzyme assay (fluorogenic substrate); conditions: 30 min, RT, read-out: hMMP9 IC50
T2 sequence (P14780 with tags, fused parts or gaps DEL216-390 limits assumed): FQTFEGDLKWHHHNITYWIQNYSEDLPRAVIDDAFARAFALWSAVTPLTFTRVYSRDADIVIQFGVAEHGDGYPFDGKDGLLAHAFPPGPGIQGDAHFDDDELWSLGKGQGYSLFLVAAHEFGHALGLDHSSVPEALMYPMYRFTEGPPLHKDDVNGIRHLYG
Description: Recombinant human MMP9 catalytic domain was expressed and then purified by Zn chelate column chromatography followed by hydroxamate affinity column chromatography. The enzyme can be used to monitor inhibitors of activity as follows: MMP9 (5 ng/ml final concentration) is incubated for 30 minutes at RT with the synthetic substrate Mca-Pro-Cha-Gly-Nva-His-Ala-Dpa-NH2 (5 μM) in assay buffer (0.1M “Tris-HCl” (trade mark) buffer, pH 7.3 containing 0.1M NaCl, 20 mM CaCl2, 0.020 mM ZnCl and 0.05% (w/v) “Brij 35” (trade mark) detergent) in the presence (10 concentrations) or absence of inhibitors. Activity is determined by measuring the fluorescence at […]. Percent inhibition is calculated as follows: % Inhibition is equal to the [Fluorescenceplus inhibitor−Fluorescencebackground] divided by the [Fluorescenceminus inhibitor−Fluorescencebackground]. MMP14

[3] = biological target: T3, hMMP8 (APMA-activated pro-MMP8) (Homo sapiens, UniProt P22894); test: MMP8 isolated enzyme assay (fluorogenic substrate); conditions: 90 min, 35° C.
T3 construct: purchased Calbiochem
Description: Purified pro-MMP8 is purchased from Calbiochem. The enzyme (at 10 μg/ml) is activated by p-amino-phenyl-mercuric acetate (APMA) at 1 mM for 2.5 h, 35° C. The activated enzyme can be used to monitor inhibitors of activity as follows: MMP8 (200 ng/ml final concentration) is incubated for 90 minutes at 35° C. (80% H2O) with the synthetic substrate Mca-Pro-Cha-Gly-Nva-His-Ala-Dpa-NH2 (12.5 μM) in assay buffer (0.1 M “Tris-HCl” (trade mark) buffer, pH 7.5 containing 0.1M NaCl, 30 mM CaCl2, 0.040 mM ZnCl and 0.05% (w/v) “Brij 35” (trade mark) detergent) in the presence (10 concentrations) or absence of inhibitors. Activity is determined by measuring the fluorescence at λex 320 nm and λem 405 nm. Percent inhibition is calculated as follows: % Inhibition is equal to the [Fluorescenceplus inhibitor−Fluorescencebackground] divided by the [Fluorescenceminus inhibitor−Fluorescencebackground]. MMP9

[4] = biological target: T4, Recombinant human MMP14 catalytic domain (Homo sapiens, UniProt P50281); test: MMP14 isolated enzyme assay (fluorogenic substrate); conditions: 60 min, room temperature, read-out: hMMP14 IC50
T4 construct: Recombinant human MMP14 catalytic domain; made in house
Description: Recombinant human MMP14 catalytic domain may be expressed and purified as described by Parkar A. A. et al, (2000), Protein Expression and Purification, 20, 152. The purified enzyme can be used to monitor inhibitors of activity as follows: MMP14 (10 ng/ml final concentration) is incubated for 60 minutes at room temperature with the synthetic substrate Mca-Pro-Cha-Gly-Nva-His-Ala-Dpa-NH2 (10 μM) in assay buffer (0.1M “Tris-HCl” (trade mark) buffer, pH 7.5 containing 0.1M NaCl, 20 mM CaCl2, 0.020 mM ZnCl and 0.05% (w/v) “Brij 35” (trade mark) detergent) in the presence (5 concentrations) or absence of inhibitors. Activity is determined by measuring the fluorescence at λex 320 nm and λem 405 nm. Percent inhibition is calculated as follows: % Inhibition is equal to the [Fluorescenceplus inhibitor−Fluorescencebackground] divided by the [Fluorescenceminus inhibitor−Fluorescencebackground].

[5] = biological target: T5, Recombinant human MMP19 catalytic domain (Homo sapiens, UniProt Q99542); test: MMP19 isolated enzyme assay (fluorogenic substrate); conditions: 120 min, 35° C., read-out: hMMP19 IC50
T5 construct: Recombinant human MMP19 catalytic domain; made in house
Description: Recombinant human MMP19 catalytic domain may be expressed and purified as described by Parkar A. A. et al, (2000), Protein Expression and Purification, 20:152. The purified enzyme can be used to monitor inhibitors of activity as follows: MMP19 (40 ng/ml final concentration) is incubated for 120 minutes at 35° C. with the synthetic substrate Mca-Pro-Leu-Ala-Nva-Dpa-Ala-Arg-NH2 (5 μM) in assay buffer (0.1M “Tris-HCl” (trade mark) buffer, pH 7.3 containing 0.1M NaCl, 20 mM CaCl2, […] ZnCl and 0.05% (w/v) “Brij 35” (trade mark) detergent) in the presence (5 concentrations) or absence of inhibitors. Activity is determined by measuring the fluorescence at λex 320 nm and λem 405 nm. Percent inhibition is calculated as follows: % Inhibition is equal to the [Fluorescenceplus inhibitor−Fluorescencebackground] divided by the [Fluorescenceminus inhibitor−Fluorescencebackground].

T3 sequence (P22894 101-467): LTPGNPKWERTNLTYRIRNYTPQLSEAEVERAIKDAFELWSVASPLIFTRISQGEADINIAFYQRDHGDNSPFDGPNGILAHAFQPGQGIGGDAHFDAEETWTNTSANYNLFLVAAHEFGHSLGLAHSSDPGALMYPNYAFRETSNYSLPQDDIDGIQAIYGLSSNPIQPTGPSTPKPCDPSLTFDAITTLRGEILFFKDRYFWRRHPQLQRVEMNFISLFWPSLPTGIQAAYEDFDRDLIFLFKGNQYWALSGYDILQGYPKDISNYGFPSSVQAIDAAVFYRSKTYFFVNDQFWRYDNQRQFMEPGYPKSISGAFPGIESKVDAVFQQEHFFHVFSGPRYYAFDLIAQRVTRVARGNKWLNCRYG
T1 sequence (P39900 106-263 limits assumed): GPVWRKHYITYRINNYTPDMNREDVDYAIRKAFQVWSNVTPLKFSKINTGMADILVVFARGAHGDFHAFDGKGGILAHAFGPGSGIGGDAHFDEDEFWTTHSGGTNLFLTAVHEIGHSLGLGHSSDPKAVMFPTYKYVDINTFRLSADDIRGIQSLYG
T5 sequence (Q99542 98-256 limits assumed): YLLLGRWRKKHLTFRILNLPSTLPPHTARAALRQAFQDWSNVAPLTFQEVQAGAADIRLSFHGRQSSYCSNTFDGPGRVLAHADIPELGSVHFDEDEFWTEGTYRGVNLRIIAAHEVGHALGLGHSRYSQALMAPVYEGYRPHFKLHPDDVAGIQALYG

Compound | IC50 [1] | IC50 [2] | IC50 [3] | IC50 [4] | IC50 [5]
C[C@]1(CS(=O)(=O)N2CCc3cc(-c4ccc(C5CC5)nc4)ncc3C2)NC(=O)NC1=O [Example 2, (5S)-5-({[6-(6-Cyclopropylpyridin-3-yl)-3,4-dihydro-2,7-naphthyridin-2(1H)-yl]sulfonyl}methyl)-5-methylimidazolidine-2,4-dione] | 0.0266 µM | 0.0215 µM | 2.47 µM | > 10 µM | –
CC[C@]1(CS(=O)(=O)N2CCc3cc(-c4cnc(C5CC5)nc4)ccc3C2)NC(=O)NC1=O [Example 5, (5S)-5-({[6-(2-Cyclopropylpyrimidin-5-yl)-3,4-dihydroisoquinolin-2(1H)-yl]sulfonyl}methyl)-5-ethylimidazolidine-2,4-dione] | 0.0069 µM | 0.0038 µM | 1.31 µM | 8.81 µM | 3.76 µM
C[C@]1(CS(=O)(=O)N2CCc3cc(-c4cnc(C5CC5)nc4)ccc3C2)NC(=O)NC1=O [Example 1, (5S)-5-({[6-(2-Cyclopropylpyrimidin-5-yl)-3,4-dihydroisoquinolin-2(1H)-yl]sulfonyl}methyl)-5-methylimidazolidine-2,4-dione] | 0.00878 µM | 0.0101 µM | 3.05 µM | > 10 µM | > 10 µM
